Read-outs that look alike come from different tables or passages of the source.
Tests used:
[1] = test system: HCT116 human colorectal adenocarcinoma; conditions: for Logrank Significance: compared to Group 1
Description: MPT0L056 was used to evaluate for activity against the HCT116 human colorectal adenocarcinoma.
However, MPT0E028 was administered orally (p.o.) in 1.0% CMC and 0.5% Tween 80 and given dose at 25 mg/kg daily to end schedule.
Each animal was euthanized when the tumors reached the predetermined endpoint size of 1,000 mm^3. The time to endpoint (TTE) for each mouse was calculated by the following equation:
[formula] where TTE is expressed in days, endpoint volume is in mm^3, b is the intercept, and m is the slope of the line obtained by linear regression of a log-transformed tumor growth data set. The data set is comprised of the first observation that exceeded the study endpoint volume and the three consecutive observations that immediately preceded the attainment of the endpoint volume. The calculated TTE is usually less than the day on which an animal is euthanized for tumor size. […] An animal classified as having died from treatment-related (TR) causes or non-treatment-related metastasis (NTRm) causes was assigned a TTE value equal to the day of death. An animal classified as having died from non-treatment-related (NTR) causes was excluded from TTE calculations.
Treatment efficacy was determined from tumor growth delay (TGD), which is defined as the increase in the median TTE for a treatment group compared to the control group: TGD=T−C, expressed in days, or as a percentage of the median TTE of the control group:
[formula] where: • T=median TTE for a treatment group, • C=median TTE for control Group 1.
Treatment efficacy was also determined from the tumor volumes of animals remaining in the study on the last day, and from the number of regression responses. The MTV(n) is defined as the median tumor volume on D59 in the number of animals remaining, n, whose tumors have not attained the endpoint volume.
Treatment may cause a partial regression (PR) or a complete regression (CR) of the tumor in an animal. […] An animal with a CR at the termination of a study is additionally classified as a tumor-free survivor (TFS).
Animals were weighed daily for the first five days, then twice weekly until the completion of the study. The mice were examined frequently for overt signs of any adverse, drug-related side effects. Acceptable toxicity for the MTD of cancer drugs is defined as a group mean BW loss of 20% or less during the test, and not more than one TR death among ten animals. A death is classified as TR if there is evidence of treatment side effects from clinical signs and/or necropsy or from unknown causes during dosing period or within 10 days of the last dose. A death is classified as NTR if there is no evidence that the death was related to treatment side effects.
The logrank test was used to determine the statistical significance of the difference between the TTE values of two groups, except any NTR deaths. Statistical and graphical analyses were performed with Prism 3.03 (GraphPad) for Windows. The two-tailed statistical analyses were conducted at P=0.05. Kaplan-Meier plots show the percentage of animals remaining in the study versus time. The Kaplan-Meier plots use the same data set as the log rank test. The tumor growth curves show the group median tumor volume, on a log scale as a function of time.

[2] = test system: human A2780 ovarian adenocarcinoma; assay: Human A2780 ovarian cancer xenograft in female nude mice (TMU-A2780-e0001); type: in vivo
[3] = target: ITCH (Homo sapiens, UniProt Q96J02); assay: Blocking of ITCH self-ubiquitination, in vitro assay; type: biochemical; conditions: FIG. 1
ITCH, sequence (Q96J02 whole entry, species assumed): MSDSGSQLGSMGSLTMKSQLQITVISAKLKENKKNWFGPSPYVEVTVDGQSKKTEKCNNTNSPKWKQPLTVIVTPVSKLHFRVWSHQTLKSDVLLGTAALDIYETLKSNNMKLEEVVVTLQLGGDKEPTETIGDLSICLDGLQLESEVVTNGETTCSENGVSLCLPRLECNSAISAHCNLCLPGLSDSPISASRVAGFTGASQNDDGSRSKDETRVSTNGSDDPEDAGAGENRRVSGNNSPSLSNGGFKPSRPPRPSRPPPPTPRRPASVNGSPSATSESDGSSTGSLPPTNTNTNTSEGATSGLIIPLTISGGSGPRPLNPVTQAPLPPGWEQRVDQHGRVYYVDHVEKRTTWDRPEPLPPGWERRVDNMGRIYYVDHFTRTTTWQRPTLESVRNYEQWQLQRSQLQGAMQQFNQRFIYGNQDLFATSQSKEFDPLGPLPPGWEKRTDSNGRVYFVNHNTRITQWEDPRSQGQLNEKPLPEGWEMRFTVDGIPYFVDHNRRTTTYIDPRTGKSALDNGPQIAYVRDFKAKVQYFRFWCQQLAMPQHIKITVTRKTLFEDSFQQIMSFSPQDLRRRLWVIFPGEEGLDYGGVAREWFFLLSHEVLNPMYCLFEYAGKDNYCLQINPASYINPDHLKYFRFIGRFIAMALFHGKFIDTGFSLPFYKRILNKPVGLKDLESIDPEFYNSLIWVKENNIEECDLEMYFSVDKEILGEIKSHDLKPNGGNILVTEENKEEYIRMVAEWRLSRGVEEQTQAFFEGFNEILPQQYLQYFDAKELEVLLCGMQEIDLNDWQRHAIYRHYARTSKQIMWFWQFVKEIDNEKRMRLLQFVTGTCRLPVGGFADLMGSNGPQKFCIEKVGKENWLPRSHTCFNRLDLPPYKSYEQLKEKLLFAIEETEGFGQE
Excerpt: MPT0L056 of the invention was used to test the blocking of ITCH self-ubiquitination. […] [Reference for in vitro assay: Scialpi F, Malatesta M, Peschiaroli A, Rossi M, Melino G, and Bernassola F. Itch self-polyubiquitylation occurs through lysine-63 linkages. Biochem Pharmacol. 2008 Dec. 1; 76(11):1515-21. Reference for in vivo assay: Chang L, Kamata H, Solinas G, Luo J L, Maeda S, Venuprasad K, Liu Y C, and Karin M. The E3 ubiquitin ligase itch couples JNK activation to TNFalpha-induced cell death by inducing c-FLIP(L) turnover. Cell. 2006 Feb. 10; 124(3):601-131

[4] = target: DYRK1B (Homo sapiens, UniProt Q9Y463); assay: Protein kinase assay (Kinome assay); type: binding
DYRK1B, sequence (Q9Y463 whole entry, species assumed): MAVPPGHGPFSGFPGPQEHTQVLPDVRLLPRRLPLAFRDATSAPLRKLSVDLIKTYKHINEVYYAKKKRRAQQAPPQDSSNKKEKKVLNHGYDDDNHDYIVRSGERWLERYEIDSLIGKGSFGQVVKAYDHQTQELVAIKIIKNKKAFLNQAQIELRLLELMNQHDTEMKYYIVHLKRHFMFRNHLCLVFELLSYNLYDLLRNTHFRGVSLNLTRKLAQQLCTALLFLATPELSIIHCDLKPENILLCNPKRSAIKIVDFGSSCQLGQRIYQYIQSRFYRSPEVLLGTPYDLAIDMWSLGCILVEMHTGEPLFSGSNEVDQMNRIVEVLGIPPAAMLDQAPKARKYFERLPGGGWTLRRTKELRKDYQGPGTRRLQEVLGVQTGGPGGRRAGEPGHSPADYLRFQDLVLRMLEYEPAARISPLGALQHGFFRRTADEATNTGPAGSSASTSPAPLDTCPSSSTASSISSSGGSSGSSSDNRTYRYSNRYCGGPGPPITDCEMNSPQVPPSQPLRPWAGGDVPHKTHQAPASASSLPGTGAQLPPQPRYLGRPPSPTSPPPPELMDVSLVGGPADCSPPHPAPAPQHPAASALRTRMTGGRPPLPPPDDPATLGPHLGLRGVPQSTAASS
Excerpt: (§1) The compounds of the invention were subjected to protein kinase assay.

[5] = target: RIOK2 (Homo sapiens, UniProt Q9BVS4); assay: Protein kinase assay (Kinome assay); type: binding
RIOK2, sequence (Q9BVS4 whole entry, species assumed): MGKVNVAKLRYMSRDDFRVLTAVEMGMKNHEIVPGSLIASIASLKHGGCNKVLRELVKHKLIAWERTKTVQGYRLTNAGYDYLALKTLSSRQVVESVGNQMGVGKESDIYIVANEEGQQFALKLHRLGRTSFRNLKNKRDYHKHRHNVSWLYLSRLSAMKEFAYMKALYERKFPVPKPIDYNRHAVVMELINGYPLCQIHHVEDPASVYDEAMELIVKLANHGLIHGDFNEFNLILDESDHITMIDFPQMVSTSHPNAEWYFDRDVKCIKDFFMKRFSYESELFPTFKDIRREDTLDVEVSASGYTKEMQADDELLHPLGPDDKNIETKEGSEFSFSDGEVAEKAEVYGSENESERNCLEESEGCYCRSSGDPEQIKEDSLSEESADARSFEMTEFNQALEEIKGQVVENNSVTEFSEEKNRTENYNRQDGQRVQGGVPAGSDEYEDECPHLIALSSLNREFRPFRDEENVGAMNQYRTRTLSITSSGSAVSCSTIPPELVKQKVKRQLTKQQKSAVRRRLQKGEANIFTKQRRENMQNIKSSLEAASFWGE
Excerpt: as §1

[6] = target: CSNK1D (Homo sapiens, UniProt P48730); assay: Protein kinase assay (Kinome assay); type: binding
Excerpt: as §1

[7] = target: PCTK1 (Homo sapiens, UniProt Q00536); assay: Protein kinase assay (Kinome assay); type: binding
PCTK1, sequence (Q00536 whole entry, species assumed): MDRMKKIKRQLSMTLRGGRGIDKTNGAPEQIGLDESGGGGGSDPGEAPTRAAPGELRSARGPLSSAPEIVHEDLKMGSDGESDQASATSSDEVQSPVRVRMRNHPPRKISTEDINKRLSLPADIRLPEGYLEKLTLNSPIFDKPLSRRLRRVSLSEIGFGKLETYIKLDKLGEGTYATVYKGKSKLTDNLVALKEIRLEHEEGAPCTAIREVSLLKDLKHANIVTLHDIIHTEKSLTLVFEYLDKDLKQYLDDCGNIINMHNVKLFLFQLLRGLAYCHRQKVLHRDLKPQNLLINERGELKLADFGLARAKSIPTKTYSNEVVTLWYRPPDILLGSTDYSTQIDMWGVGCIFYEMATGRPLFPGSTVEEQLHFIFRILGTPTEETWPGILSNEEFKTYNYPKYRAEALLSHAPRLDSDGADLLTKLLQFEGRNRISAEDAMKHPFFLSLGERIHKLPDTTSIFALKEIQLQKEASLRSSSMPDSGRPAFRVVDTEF
Excerpt: as §1

[8] = target: ROCK2 (Homo sapiens, UniProt O75116); assay: Protein kinase assay (Kinome assay); type: binding
ROCK2, sequence (O75116 whole entry, species assumed): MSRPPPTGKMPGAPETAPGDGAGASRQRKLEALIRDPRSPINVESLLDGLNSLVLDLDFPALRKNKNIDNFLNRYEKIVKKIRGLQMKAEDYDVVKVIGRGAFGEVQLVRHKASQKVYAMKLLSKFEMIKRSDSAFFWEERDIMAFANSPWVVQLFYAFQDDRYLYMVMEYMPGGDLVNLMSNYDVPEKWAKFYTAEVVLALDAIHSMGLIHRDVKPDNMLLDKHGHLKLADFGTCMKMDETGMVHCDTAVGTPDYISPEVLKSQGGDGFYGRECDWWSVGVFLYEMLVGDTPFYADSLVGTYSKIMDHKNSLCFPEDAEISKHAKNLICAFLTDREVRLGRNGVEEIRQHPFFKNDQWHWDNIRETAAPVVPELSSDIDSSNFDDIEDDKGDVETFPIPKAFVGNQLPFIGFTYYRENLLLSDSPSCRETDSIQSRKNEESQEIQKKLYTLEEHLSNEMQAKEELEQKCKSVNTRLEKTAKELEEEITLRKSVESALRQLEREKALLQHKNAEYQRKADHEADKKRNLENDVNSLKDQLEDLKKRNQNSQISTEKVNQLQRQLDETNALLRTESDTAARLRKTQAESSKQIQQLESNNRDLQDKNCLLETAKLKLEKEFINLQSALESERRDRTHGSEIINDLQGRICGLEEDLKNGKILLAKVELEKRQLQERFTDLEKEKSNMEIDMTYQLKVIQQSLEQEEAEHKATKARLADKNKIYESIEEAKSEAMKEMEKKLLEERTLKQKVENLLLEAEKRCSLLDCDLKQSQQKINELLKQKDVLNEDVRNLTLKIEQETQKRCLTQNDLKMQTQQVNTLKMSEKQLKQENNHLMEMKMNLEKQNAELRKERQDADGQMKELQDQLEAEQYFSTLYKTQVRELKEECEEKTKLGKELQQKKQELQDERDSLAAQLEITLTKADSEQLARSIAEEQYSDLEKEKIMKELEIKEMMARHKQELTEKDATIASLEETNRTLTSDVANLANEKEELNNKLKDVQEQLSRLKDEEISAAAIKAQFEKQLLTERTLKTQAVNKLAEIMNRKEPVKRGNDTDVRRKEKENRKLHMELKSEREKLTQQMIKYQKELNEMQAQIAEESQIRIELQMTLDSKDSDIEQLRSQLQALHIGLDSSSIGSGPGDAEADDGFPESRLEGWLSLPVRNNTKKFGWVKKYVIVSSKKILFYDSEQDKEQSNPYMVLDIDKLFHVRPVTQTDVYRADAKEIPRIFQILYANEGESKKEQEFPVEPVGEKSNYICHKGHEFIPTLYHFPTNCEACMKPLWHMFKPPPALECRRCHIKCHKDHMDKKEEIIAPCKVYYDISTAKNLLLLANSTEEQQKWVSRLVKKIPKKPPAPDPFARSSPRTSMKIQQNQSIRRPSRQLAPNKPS
Excerpt: as §1

[9] = target: JNK1 (Homo sapiens, UniProt P45983); assay: Protein kinase assay (Kinome assay); type: binding
JNK1, sequence (P45983 whole entry, species assumed): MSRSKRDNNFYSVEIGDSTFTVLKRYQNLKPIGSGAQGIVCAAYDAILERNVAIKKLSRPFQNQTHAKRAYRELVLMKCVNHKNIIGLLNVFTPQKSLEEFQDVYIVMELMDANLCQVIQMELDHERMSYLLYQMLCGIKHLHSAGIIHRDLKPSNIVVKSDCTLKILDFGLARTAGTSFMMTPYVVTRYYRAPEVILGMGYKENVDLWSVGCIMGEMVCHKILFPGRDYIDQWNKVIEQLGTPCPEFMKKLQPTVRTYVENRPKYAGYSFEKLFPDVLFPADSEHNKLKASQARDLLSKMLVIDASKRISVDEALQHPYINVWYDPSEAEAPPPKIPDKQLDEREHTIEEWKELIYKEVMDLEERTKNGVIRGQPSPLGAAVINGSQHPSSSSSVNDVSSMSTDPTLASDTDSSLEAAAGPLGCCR
Excerpt: as §1

[10] = target: JNK3 (Homo sapiens, UniProt P53779); assay: Protein kinase assay (Kinome assay); type: binding
JNK3, sequence (P53779 whole entry, species assumed): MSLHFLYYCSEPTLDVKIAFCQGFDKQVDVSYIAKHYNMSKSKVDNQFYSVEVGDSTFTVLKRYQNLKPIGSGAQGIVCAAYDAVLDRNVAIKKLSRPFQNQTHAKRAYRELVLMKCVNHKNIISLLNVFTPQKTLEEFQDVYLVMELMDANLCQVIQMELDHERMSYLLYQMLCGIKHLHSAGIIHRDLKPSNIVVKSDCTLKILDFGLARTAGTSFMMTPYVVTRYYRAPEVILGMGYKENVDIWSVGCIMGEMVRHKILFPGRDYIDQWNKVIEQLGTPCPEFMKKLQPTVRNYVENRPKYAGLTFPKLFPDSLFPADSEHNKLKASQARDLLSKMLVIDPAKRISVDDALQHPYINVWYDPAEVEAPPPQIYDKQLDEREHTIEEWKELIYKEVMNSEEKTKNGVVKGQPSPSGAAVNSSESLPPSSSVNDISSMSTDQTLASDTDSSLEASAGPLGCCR
Excerpt: as §1

[11] = Group 1 vs 4: MPT0L056 100 mg/kg
[12] = Group 4: MPT0L056 100 mg/kg po qd to endpoint
[13] = Group 5: MPT0L056 50 mg/kg po qd to endpoint
[14] = Group 7: MPT0L056 100 mg/kg po qd + MPT0E028 25 mg/kg po qd to endpoint
[15] = Group 8: MPT0L056 50 mg/kg po qd + MPT0E028 25 mg/kg po qd to endpoint

O=C(Nc1ccncc1)c1ccc(CNC2=C(Cl)C(=O)c3ccccc3C2=O)cc1 [MPT0L056]
Hazard Ratio [1, 11]: 4.135
Median survival [1, 11]: 48.55
Median survival Ratio [1, 11]: 0.4876
Hazard Ratio ([1]; Group 1 vs 5: 50 mg/kg): 1.959
Median survival ([1]; Group 1 vs 5: 50 mg/kg): 29.95
Median survival Ratio ([1]; Group 1 vs 5: 50 mg/kg): 0.7579
Day of Max % BW Loss [1, 12]: 6 days
MTV (n) Day 59 [1, 12]: 160 mm^3
Max % BW Loss [1, 12]: −2.3%
Median TTE [1, 12]: 48.5 days
No. of NTR [1, 12]: 0
No. of TR [1, 12]: 0
T-C [1, 12]: 25.8 days
antitumor activity (logrank analysis) [1, 12]: produced significant antitumor activity
% TGD ([1]; Group 4: MPT0L056 100 mg/kg po qd to endpoint, 100 mg/kg): 114%
Logrank Significance [1, 12]: ** (** = P < 0.01)
Day of Max % BW Loss [1, 13]: 5 days
MTV (n) Day 59 [1, 13]: 975 mm^3
Max % BW Loss [1, 13]: −3.8%
Median TTE [1, 13]: 30.0 days
No. of LTTFS [1, 13]: 0
No. of NTR [1, 13]: 2
No. of TR [1, 13]: 0
T-C [1, 13]: 7.3 days
antitumor activity (logrank analysis) [1, 13]: but not 50 mg/kg (P=0.2087), produced significant antitumor activity
% TGD ([1]; Group 5: MPT0L056 50 mg/kg po qd to endpoint, 50 mg/kg): 32%
% TGD [1, 14]: 50%
Day of Max % BW Loss [1, 14]: 5 days
Max % BW Loss [1, 14]: −8.4%
Median TTE [1, 14]: 34.0 days
No. of CR [1, 14]: 0
No. of LTTFS [1, 14]: 0
No. of NTR [1, 14]: 0
No. of PR [1, 14]: 0
No. of TR [1, 14]: 0
T-C [1, 14]: 11.3 days
% TGD [1, 15]: 100%
Day of Max % BW Loss [1, 15]: 3 days
Max % BW Loss [1, 15]: −9.5%
Median TTE [1, 15]: 45.3 days
No. of LTTFS [1, 15]: 0
T-C [1, 15]: 22.6 days
synergistic effect of antitumor activity (logrank analysis) [1, 15]: significant synergistic effect of antitumor activity
Logrank Significance [1, 15]: ** (** = P < 0.01)
antitumor activity ([2]; MPT0L056 50 mg/kg (so in the source) p.o. once every day to the end): but not 50 mg/kg (P>0.05) produced significant antitumor activity
antitumor activity ([2]; MPT0L056 200 mg/kg p.o. once every day to the end): produced significant antitumor activity
body weight change ([2]; MPT0L056 100 and 200 mg/kg, FIG. 8): did not significantly affect the animal body weight
blocking of ITCH self-ubiquitination (Lys-dependent) [3]: blocks ITCH self-ubiquitnation (Lys-dependent) efficiently
Kd [4]: 1400 nM
Kd [5]: 6600 nM
Kd [6]: 2000 nM
Kd [7]: > 10000 nM
Kd [8]: 580 nM
Kd [9]: 4200 nM
Kd [10]: 430 nM

Reference: patent US11919858B2, “Aminonapthoquinone compounds and pharmaceutical composition for blocking ubiquitination-proteasome system in diseases” (Calgent Biotechnology Co., Ltd., priority 2015, dated 2024)
